From PubChem BioAssay (NCI)
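Compound exposure: 48 hours, 5 concentrations, 96-well plates. The concentration for full growth arrest is given as TGI.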

How the values were obtained:
Test in all cases: NCI-60 cell line screen, 48 h
CAKI-1 renal = test system: CAKI-1 renal
COLO 205 colon = test system: COLO 205 colon
DU-145 prostate = test system: DU-145 prostate
HOP-62 NSCLC = test system: HOP-62 NSCLC
HS 578T breast = test system: HS 578T breast
IGROV1 ovarian = test system: IGROV1 ovarian
K-562 leukemia = test system: K-562 leukemia
MALME-3M melanoma = test system: MALME-3M melanoma
MDA-MB-231 breast = test system: MDA-MB-231 breast
OVCAR-3 ovarian = test system: OVCAR-3 ovarian
OVCAR-5 ovarian = test system: OVCAR-5 ovarian
OVCAR-8 ovarian = test system: OVCAR-8 ovarian
SK-OV-3 ovarian = test system: SK-OV-3 ovarian
SNB-75 CNS = test system: SNB-75 CNS
KM12 colon = test system: KM12 colon
LOX IMVI melanoma = test system: LOX IMVI melanoma
RPMI-8226 leukemia = test system: RPMI-8226 leukemia
UO-31 renal = test system: UO-31 renal

| SMILES | TGI (CAKI-1 renal) | TGI (COLO 205 colon) | TGI (DU-145 prostate) | TGI (HOP-62 NSCLC) | TGI (HS 578T breast) | TGI (IGROV1 ovarian) | TGI (K-562 leukemia) | TGI (MALME-3M melanoma) | TGI (MDA-MB-231 breast) | TGI (OVCAR-3 ovarian) | TGI (OVCAR-5 ovarian) | TGI (OVCAR-8 ovarian) | TGI (SK-OV-3 ovarian) | TGI (SNB-75 CNS) | TGI (KM12 colon) | TGI (LOX IMVI melanoma) | TGI (RPMI-8226 leukemia) | TGI (UO-31 renal) |
| --- | --- | --- | --- | --- | --- | --- | --- | --- | --- | --- | --- | --- | --- | --- | --- | --- | --- | --- |
| Clc1cc2nnn(C3CCCO3)c2cc1Cl (centres undefined) | > 100 µM | > 100 µM | > 100 µM | > 100 µM | > 100 µM | > 100 µM | > 100 µM | > 100 µM | > 100 µM | > 100 µM | > 100 µM | > 100 µM | > 100 µM | > 100 µM | – | – | – | – |
| Cc1ccc(NC(=O)CC(=O)n2nc(C)c(N=Nc3cccc(C)c3)c2C)cc1 | > 100 µM | > 100 µM | > 100 µM | > 100 µM | > 100 µM | > 100 µM | – | > 100 µM | > 100 µM | > 100 µM | > 100 µM | > 100 µM | > 100 µM | 62.3 µM | > 100 µM | > 100 µM | > 100 µM | > 100 µM |
| O=[N+]([O-])/C(C(Cl)=C(Cl)Cl)=C(/Nc1ccccc1)Sc1ccccc1 | 29.5 µM | 34.8 µM | 41.4 µM | 62 µM | > 100 µM | 48.1 µM | 41.6 µM | 31.8 µM | 37.6 µM | 30.1 µM | – | 33.6 µM | 42.9 µM | – | 36 µM | 30.7 µM | 66.1 µM | 27.5 µM |
| Cc1ccccc1NC(=O)Cc1csc(N=Nc2c(O)[nH]c3ccccc23)n1 | 37.6 µM | > 100 µM | > 100 µM | – | 84.9 µM | > 100 µM | > 100 µM | > 100 µM | > 100 µM | – | > 100 µM | 43.1 µM | – | > 100 µM | > 100 µM | > 100 µM | > 100 µM | > 100 µM |
| CN(C)CCCNC(=O)c1cn2c(ccc3sc4ccccc4c(=O)c32)n1 | 14.8 µM | 7.95 µM | 25 µM | 28 µM | 36.1 µM | 27.4 µM | – | 24.4 µM | 2.93 µM | 24.1 µM | 22.8 µM | 10.1 µM | 30.7 µM | 30.5 µM | 37.6 µM | – | 5.36 µM | 24.3 µM |
| FC(F)(F)c1ccc2nc(Sc3ccc4ccccc4c3)cnc2c1 | > 100 µM | > 100 µM | > 100 µM | > 100 µM | > 100 µM | > 100 µM | > 100 µM | > 100 µM | > 100 µM | – | > 100 µM | > 100 µM | > 100 µM | > 100 µM | > 100 µM | > 100 µM | – | > 100 µM |
| C=C1CC2[C@H](C)C(=O)CCC2(C)C2=C1C1CCC(C(C)CCC(=C)C(C)C(=O)O)C1(C)CC2=O (some centres undefined) | > 100 µM | > 100 µM | > 100 µM | > 100 µM | > 100 µM | > 100 µM | 28.7 µM | > 100 µM | > 100 µM | > 100 µM | > 100 µM | > 100 µM | > 100 µM | > 100 µM | > 100 µM | 33.8 µM | – | 99.4 µM |
| O=S(=O)(O)c1cc(S(=O)(=O)O)c2c(N=Nc3ccc(N=Nc4ccccc4)cc3)c(O)ccc2c1 | > 100 µM | > 100 µM | > 100 µM | > 100 µM | > 100 µM | > 100 µM | > 100 µM | > 100 µM | > 100 µM | > 100 µM | > 100 µM | > 100 µM | > 100 µM | > 100 µM | > 100 µM | – | > 100 µM | > 100 µM |
| CN1CCC2(CC1)C(=NC1CCCCC1)NC(=O)N2c1ccccc1 | – | > 100 µM | > 100 µM | > 100 µM | > 100 µM | > 100 µM | – | > 100 µM | > 100 µM | – | > 100 µM | > 100 µM | > 100 µM | > 100 µM | > 100 µM | – | > 100 µM | > 100 µM |
| CCCCC[C@H]1CCCCCCCCCC(=O)OC2C(O[C@@H]3OC(C)[C@H](OC(=O)[C@@H](C)CC)C(O[C@@H]4OC(C)[C@H](O)C(O)[C@@H]4O)[C@@H]3OC(=O)[C@H](C)CC)[C@H](OC3C(O)[C@@H](O)C(C)O[C@H]3O1)OC(CO)[C@H]2O (some centres undefined) | 31.7 µM | 25 µM | 30 µM | 32.8 µM | 35.8 µM | 31.8 µM | 32.9 µM | 28.8 µM | 30.7 µM | 32 µM | 30.6 µM | 35.5 µM | 29.3 µM | – | 35.8 µM | 31.4 µM | 30.5 µM | 30.8 µM |
| CC(C)=NOC(=O)Nc1cccc2c1OCO2 | > 100 µM | > 100 µM | > 100 µM | > 100 µM | > 100 µM | > 100 µM | – | > 100 µM | > 100 µM | > 100 µM | > 100 µM | > 100 µM | > 100 µM | > 100 µM | > 100 µM | > 100 µM | > 100 µM | > 100 µM |
| O=[N+]([O-])C(C=C(n1nnc2ccccc21)n1nnc2ccccc21)=C(n1nnc2ccccc21)n1nnc2ccccc21 | > 100 µM | > 100 µM | > 100 µM | > 100 µM | > 100 µM | > 100 µM | > 100 µM | > 100 µM | > 100 µM | > 100 µM | > 100 µM | > 100 µM | > 100 µM | – | > 100 µM | > 100 µM | > 100 µM | > 100 µM |
| O=C(Nc1ccc(Cl)cc1)c1cc(S(=O)(=O)Nc2n[nH]c(=O)n2-c2ccccc2)c(S)cc1Cl | > 100 µM | > 100 µM | > 100 µM | > 100 µM | > 100 µM | > 100 µM | – | > 100 µM | > 100 µM | > 100 µM | > 100 µM | > 100 µM | > 100 µM | – | > 100 µM | > 100 µM | > 100 µM | > 100 µM |
